Patent US20240217978A1 (CHONG KUN DANG PHARMACEUTICAL CORP., priority 2021, published 2024)

Target: human adenosine A2a receptor (Homo sapiens (Human), UniProt P29274)
Test: A2a receptor binding affinity, [3H]-NECA radioligand binding test
Details: [3H]-NECA 37 nM; membrane from HEK-293 cells transfected with human adenosine A2a receptor
In short: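 IC50 values (μM) come from displacement of [3H]-NECA, used at 37 nM final, on human A2a receptor membranes from transfected HEK-293 cells. Incubation lasted one hour at room temperature in Tris/MgCl2/EDTA buffer, pH 7.4; filter-bound radioactivity was counted by scintillation.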

Sequence of human adenosine A2a receptor (P29274 whole entry): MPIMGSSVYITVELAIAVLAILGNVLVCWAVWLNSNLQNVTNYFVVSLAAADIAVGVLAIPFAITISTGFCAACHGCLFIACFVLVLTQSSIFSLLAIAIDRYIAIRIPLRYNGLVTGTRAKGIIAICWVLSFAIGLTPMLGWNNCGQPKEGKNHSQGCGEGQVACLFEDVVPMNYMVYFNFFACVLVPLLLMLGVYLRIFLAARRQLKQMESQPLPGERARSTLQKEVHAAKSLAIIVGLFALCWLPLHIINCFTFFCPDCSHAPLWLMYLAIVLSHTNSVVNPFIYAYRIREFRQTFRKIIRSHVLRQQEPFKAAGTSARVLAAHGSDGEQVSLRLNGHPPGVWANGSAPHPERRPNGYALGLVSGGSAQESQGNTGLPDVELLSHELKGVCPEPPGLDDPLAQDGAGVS

Row | Structure (SMILES) | IC50
1 | CC(C)C[C@H](Nc1nc(N)n2nc(-c3ccco3)nc2n1)C(=O)N1CCN(c2ccc(F)cc2F)CC1 [Example 167, (S)-2-((7-amino-2-(furan-2-yl)-[1,2,4]triazolo[1,5-a][1,3,5]triazin-5-yl)amino)-1-(4-(2,4-difluorophenyl)piperazin-1-yl)-4-methylpentan-1-one] | 0.2 nM
2 | Nc1nc(N[C@H](C(=O)N2CCN(c3ccc(F)cc3F)CC2)C2CC2)nc2nc(-c3ccco3)nn12 [Example 168, (S)-2-((7-amino-2-(furan-2-yl)-[1,2,4]triazolo[1,5-a][1,3,5]triazin-5-yl)amino)-2-cyclopropyl-1-(4-(2,4-difluorophenyl)piperazin-1-yl)ethan-1-one] | 4 nM
3 | Nc1nc(N[C@H](C(=O)N2CCN(c3ccc(F)cc3F)CC2)C2CCC2)nc2nc(-c3ccco3)nn12 [Example 169, (S)-2-((7-amino-2-(furan-2-yl)-[1,2,4]triazolo[1,5-a][1,3,5]triazin-5-yl)amino)-2-cyclobutyl-1-(4-(2,4-difluorophenyl)piperazin-1-yl)ethan-1-one] | 0.1 nM
4 | Nc1nc(N[C@H](C(=O)N2CCN(c3ccc(F)cc3F)CC2)C2CCCC2)nc2nc(-c3ccco3)nn12 [Example 170, (S)-2-((7-amino-2-(furan-2-yl)-[1,2,4]triazolo[1,5-a][1,3,5]triazin-5-yl)amino)-2-cyclopentyl-1-(4-(2,4-difluorophenyl)piperazin-1-yl)ethan-1-one] | 1 nM
5 | Nc1nc(N[C@H](C(=O)N2CCN(c3ccc(F)cc3F)CC2)C2CCOCC2)nc2nc(-c3ccco3)nn12 [Example 171, (S)-2-((7-amino-2-(furan-2-yl)-[1,2,4]triazolo[1,5-a][1,3,5]triazin-5-yl)amino)-1-(4-(2,4-difluorophenyl)piperazin-1-yl)-2-(tetrahydro-2H-pyran-4-yl)ethan-1-one] | 3 nM
6 | CCCCN1CCN(C(=O)[C@H](CC)Nc2nc(N)n3nc(-c4ccco4)nc3n2)CC1 [Example 172, (S)-2-((7-amino-2-(furan-2-yl)-[1,2,4]triazolo[1,5-a][1,3,5]triazin-5-yl)amino)-1-(4-butylpiperazin-1-yl)butan-1-one] | 13 nM
7 | CCCC[C@H](Nc1nc(N)n2nc(-c3ccco3)nc2n1)C(=O)N1CCN(CCCC)CC1 [Example 173, (S)-2-((7-amino-2-(furan-2-yl)-[1,2,4]triazolo[1,5-a][1,3,5]triazin-5-yl)amino)-1-(4-butylpiperazin-1-yl)hexan-1-one] | 16 nM
8 | CCCCN1CCN(C(=O)[C@H](CC(C)C)Nc2nc(N)n3nc(-c4ccco4)nc3n2)CC1 [Example 175, (S)-2-((7-amino-2-(furan-2-yl)-[1,2,4]triazolo[1,5-a][1,3,5]triazin-5-yl)amino)-1-(4-butylpiperazin-1-yl)-4-methylpentan-1-one] | 12 nM
9 | CCCCN1CCN(C(=O)[C@@H](Nc2nc(N)n3nc(-c4ccco4)nc3n2)C2CC2)CC1 [Example 176, (S)-2-((7-amino-2-(furan-2-yl)-[1,2,4]triazolo[1,5-a][1,3,5]triazin-5-yl)amino)-1-(4-butylpiperazin-1-yl)-2-cyclopropylethan-1-one] | 16 nM
10 | CCCCN1CCN(C(=O)[C@@H](Nc2nc(N)n3nc(-c4ccco4)nc3n2)C2CCC2)CC1 [Example 177, (S)-2-((7-amino-2-(furan-2-yl)-[1,2,4]triazolo[1,5-a][1,3,5]triazin-5-yl)amino)-1-(4-butylpiperazin-1-yl)-2-cyclobutylethan-1-one] | 20 nM
11 | CCCCN1CCN(C(=O)[C@@H](Nc2nc(N)n3nc(-c4ccco4)nc3n2)C2CCCC2)CC1 [Example 178, (S)-2-((7-amino-2-(furan-2-yl)-[1,2,4]triazolo[1,5-a][1,3,5]triazin-5-yl)amino)-1-(4-butylpiperazin-1-yl)-2-cyclopentylethan-1-one] | 10 nM
12 | Nc1nc(N2CCC[C@H]2C(=O)N2CC3CCC(C2)N3C(=O)Nc2ccccc2)nc2nc(-c3ccco3)nn12 [Example 179, 3-((7-amino-2-(furan-2-yl)-[1,2,4]triazolo[1,5-a][1,3,5]triazin-5-yl)-L-prolyl)-N-phenyl-3,8-diazabicyclo[3.2.1]octane-8-carboxamide] | 5 nM
13 | Nc1nc(N2CCC[C@H]2C(=O)N2C3CCC2CN(C(=O)Nc2ccccc2)C3)nc2nc(-c3ccco3)nn12 [Example 180, 8-((7-amino-2-(furan-2-yl)-[1,2,4]triazolo[1,5-a][1,3,5]triazin-5-yl)-L-prolyl)-N-phenyl-3,8-diazabicyclo[3.2.1]octane-3-carboxamide] | 7 nM
14 | C[C@H]1CN(C(=O)Nc2ccccc2)CCN1C(=O)[C@@H]1CCCN1c1nc(N)n2nc(-c3ccco3)nc2n1 [Example 181, (S)-4-((7-amino-2-(furan-2-yl)-[1,2,4]triazolo [1,5-a][1,3,5]triazine-5-yl)-L-prolyl)-3-methyl-N-phenylpiperazin-1-carboxamide] | 11 nM
15 | C[C@@H]1CN(C(=O)Nc2ccccc2)CCN1C(=O)[C@@H]1CCCN1c1nc(N)n2nc(-c3ccco3)nc2n1 [Example 182, (R)-4-((7-amino-2-(furan-2-yl)-[1,2,4]triazolo[1,5-a][1,3,5]triazine-5-yl)-L-prolyl)-3-methyl-N-phenylpiperazin-1-carboxamide] | 8 nM
16 | Nc1nc(N2CCC[C@H]2C(=O)N2CCC3(CC2)CN(C(=O)Nc2ccccc2)C3)nc2nc(-c3ccco3)nn12 [Example 183, 7-((7-amino-2-(furan-2-yl)-[1,2,4]triazolo[1,5-a][1,3,5]triazin-5-yl)-L-prolyl)-N-phenyl-2,7-diazaspiro[3.5]nonane-2-carboxamide] | 2 nM
17 | Nc1nc(N2CCC[C@H]2C(=O)N2CCC(C3CCN(C(=O)Nc4ccccc4)CC3)CC2)nc2nc(-c3ccco3)nn12 [Example 184, 1′-((7-amino-2-(furan-2-yl)-[1,2,4]triazolo[1,5-a][1,3,5]triazin-5-yl)-L-prolyl)-N-phenyl-[4,4′-bipiperidine]-1-carboxamide] | 12 nM
18 | CCC(O)(CC)CN1CCN(C(=O)[C@@H](Nc2nc(N)n3nc(-c4ccco4)nc3n2)C2CCCCC2)CC1 [Example 185, (S)-2-((7-amino-2-(furan-2-yl)-[1,2,4]triazolo[1,5-a][1,3,5]triazin-5-yl)amino)-2-cyclohexyl-1-(4-(2-ethyl-2-hydroxybutyl)piperazin-1-yl)ethan-1-one] | 3 nM
19 | Nc1nc(N[C@H](C(=O)N2CCC(N3CC(F)(F)C3)CC2)C2CCCCC2)nc2nc(-c3ccco3)nn12 [Example 186, (S)-2-((7-amino-2-(furan-2-yl)-[1,2,4]triazolo[1,5-a][1,3,5]triazin-5-yl)amino)-2-cyclohexyl-1-(4-(3,3-difluoroazetidin-1-yl)piperidin-1-yl)ethan-1-one] | 9 nM
20 | CCCCN1CCN(C(=O)[C@@H](Nc2nc(N)n3nc(-c4ccco4)nc3n2)C2CCCCC2)CC1 [Example 187, (S)-2-((7-amino-2-(furan-2-yl)-[1,2,4]triazolo[1,5-a][1,3,5]triazin-5-yl)amino)-1-(4-butylpiperazin-1-yl)-2-cyclohexylethan-1-one] | 10 nM
21 | COCCN1CCN(C(=O)[C@@H](Nc2nc(N)n3nc(-c4ccco4)nc3n2)C2CCCCC2)CC1 [Example 188, (S)-2-((7-amino-2-(furan-2-yl)-[1,2,4]triazolo[1,5-a][1,3,5]triazin-5-yl)amino)-2-cyclohexyl-1-(4-(2-methoxyethyl)piperazin-1-yl)ethan-1-one] | 10 nM
22 | CCCCN1CCN(C(=O)[C@@H]2CCCN2c2nc(N)n3nc(-c4ccc(C)o4)nc3n2)CC1 [Example 189, (S)-(1-(7-amino-2-(5-methylfuran-2-yl)-[1,2,4]triazolo[1,5-a][1,3,5]triazin-5-yl)pyrrolidin-2-yl)(4-butylpiperazin-1-yl)methanone] | 9 nM
23 | CCCCN1CCN(C(=O)[C@@H](Nc2nc(N)n3nc(-c4ccco4)nc3n2)c2ccccc2)CC1 [Example 190, (S)-2-((7-amino-2-(furan-2-yl)-[1,2,4]triazolo[1,5-a][1,3,5]triazin-5-yl)amino)-1-(4-butylpiperazin-1-yl)-2-phenylethan-1-one] | 8 nM
24 | CCCCN1CCN(C(=O)[C@H](Cc2ccccc2)Nc2nc(N)n3nc(-c4ccco4)nc3n2)CC1 [Example 191, (S)-2-((7-amino-2-(furan-2-yl)-[1,2,4]triazolo[1,5-a][1,3,5]triazin-5-yl)amino)-1-(4-butylpiperazin-1-yl)-3-phenylpropan-1-one] | 6 nM
25 | Nc1nc(N2CCC[C@H]2C(=O)N2CCN(C(=O)c3ccccc3)CC2)nc2nc(-c3nccs3)nn12 [Example 192] | 17 nM
26 | Nc1nc(N2CCC[C@H]2C(=O)N2CCN(Cc3ccccc3)CC2)nc2nc(-c3nccs3)nn12 [Example 193, (S)-(1-(7-amino-2-(thiazol-2-yl)-[1,2,4]triazolo[1,5-a][1,3,5]triazin-5-yl)pyrrolidin-2-yl)(4-benzylpiperazin-1-yl)methanone] | 10 nM
27 | C[C@H](Nc1nc(N)n2nc(-c3nccs3)nc2n1)C(=O)N1CCN(c2ccc(F)cc2F)CC1 [Example 194, (S)-2-((7-amino-2-(thiazol-2-yl)-[1,2,4]triazolo[1,5-a][1,3,5]triazin-5-yl)amino)-1-(4-(2,4-difluorophenyl)piperazin-1-yl)propan-1-one] | 12 nM
28 | CC(C)(F)CN1CCN(C(=O)[C@@H](Nc2nc(N)n3nc(-c4ccco4)nc3n2)c2ccccc2)CC1 [Example 195, (S)-2-((7-amino-2-(furan-2-yl)-[1,2,4]triazolo[1,5-a][1,3,5]triazin-5-yl)amino)-1-(4-(2-fluoro-2-methylpropyl)piperazin-1-yl)-2-phenylethan-1-one] | 3 nM
29 | Cc1ccc(-c2nc3nc(N4CCC[C@H]4C(=O)N4CCN(CC(F)(F)F)C[C@H]4C)nc(N)n3n2)o1 [Example 196, ((S)-1-(7-amino-2-(5-methylfuran-2-yl)-[1,2,4]triazolo[1,5-a][1,3,5]triazin-5-yl)pyrrolidin-2-yl)((R)-2-methyl-4-(2,2,2-trifluoroethyl)piperazin-1-yl)methanone] | 8 nM
